Measured values reported in patent publication US7666897B2, “Analogs of indole-3-carbinol metabolites as chemotherapeutic and chemopreventive agents” (SRI International, priority 2002, dated 2010).
Like-named read-outs stand apart in the source and are kept apart here.

What was measured:
MCF-7 (ER+) = experiment: Growth inhibition assay (tetrazolium blue), MCF-7 (ER+) breast cancer cells; assay type: cell-based; conditions: for IC50: 7 days incubation, tetrazolium blue; for inhibition at 1 µM: MCF7
Method: (§1) Growth inhibition assays were conducted using DIM, LT, and some of the novel compounds of the invention on several breast cancer cell lines. The cell lines studied were MCF-7 (ER^+), MDA-MB-231 (ER^−), and a tamoxifen-resistant strain of MCF-7 (ER^+). The growth assays were conducted according to the method of Tiwari et al. (Tiwari, R. K., J Natl Cancer Inst 86:126-131, 1994). For growth Inhibition Assay, cells were grown in multi-well culture plates. Experiments were performed in quadruplicate. MCF-7 (ER^+) cells were grown in special medium containing 5% animal serum that had been treated to remove endogenous estrogens. After the plates were incubated at 37° C. for 24 hours, to each well was added test compound at various concentrations, with or without the estrogen 17β-estradiol (E2). The cells were then incubated for 7 days, with medium and test solutions replaced every other day. On Day 8, after the medium was removed and replaced with fresh medium without test solutions, the tetrazolium blue test was performed to determine the percentage of viable cells (viable cells convert the colorless tetrazolium to formazan, which is blue). At 4 hours after tetrazolium blue was added, the reaction was stopped and the formazan concentration was measured by detection of light absorbance at 575 nm in an enzyme linked immunosorbent assay (ELISA) plate reader. The percent growth inhibition was determined by dividing the ELISA results for samples containing test compounds by the results for control samples. […] (ER^−) cells were maintained and tested under the same conditions as described above, except that no estrogen was added.

MDA-MB-231 (ER−) = experiment: Growth inhibition assay (tetrazolium blue), MDA-MB-231 (ER−) breast cancer cells; assay type: cell-based, human; conditions: for IC50: no estrogen added
Method: as §1

[1] = system: Tamoxifen-resistant MCF-7; experiment: Growth inhibition assay (tetrazolium blue), tamoxifen-resistant MCF-7 cells; assay type: cell-based
Method: as §1

[2] = system: Ishikawa cells (endometrial carcinoma cells); experiment: Ishikawa assay (alkaline phosphatase induction), estrogenic and antiestrogenic activity; assay type: cell-based, human; conditions: AlkP induction, 72 hours; for Ishikawa Assay Anti-Estrogenic Activity at 10 μM: unit assumed
Method: Estrogenic and antiestrogenic activities were determined using the Ishikawa assay (Littlefield, B. A., Endocrinology 127: 2757-2762, 1990). The activities were measured at 10 μM concentrations of the test compounds. Human Ishikawa cells (endometrial carcinoma cells) are very sensitive to estrogens, and compounds with estrogenic activity induce alkaline phosphatase (AlkP) enzyme activity in these cells when administered at levels as low as 10^−12 M. Ishikawa cells were grown in growth medium supplemented with glutamine, sodium pyruvate, and 10% animal serum. At 24 hours before the experiment, the medium was replaced with medium free of phenol red and containing 5% animal serum that had been treated to remove endogenous estrogens. On Day 1, the cells were harvested and plated in fresh phenol red-free medium, and test solutions were added with or without the estrogen 17β-estradiol. After the treated cells were incubated for 72 hours, the AlkP assay was used to determine the estrogenic and antiestrogenic activity of the test compounds. Like the tetrazolium blue assay described above, this assay involves calorimetric detection using an ELISA plate reader, but here the indicator dye is yellow.

LNCaP = experiment: Growth inhibition assay (MTT), LNCaP prostate cancer cells; assay type: cell-based; conditions: Day 7, MTT
Method: (§2) Assays were conducted on compound 46 (SR13654) to determine its growth inhibitory effect on three prostate cancer cell lines, LNCaP, DU-145 and PC-3. The methods were described briefly herein. LNCaP and PC-3 cells will be maintained in […] medium, and DU-145 cells in Eaglets minimal essential medium (MEM) medium supplemented with nonessential amino acids, 2 mM glutamine and 1 mM pyruvate. All media will contain 10% fetal bovine serum (FCS). To screen compounds for their effect on cell proliferation, cells are seeded in 96-well plates at 2000 cells/well in 200 μL of medium. After cells are allowed to attach for 24 h, test compound is added to each well in 10 μL aliquots and control wells receive vehicle only. Medium and test solutions are replaced every other day. On Day 7, viable cells are measured with the MTT assay, using the protocol provided by the manufacturer (Promega, Madison, Wis.).

DU-145 = experiment: Growth inhibition assay (MTT), DU-145 prostate cancer cells; assay type: cell-based; conditions: Day 7, MTT
Method: as §2

PC-3 = experiment: Growth inhibition assay (MTT), PC-3 prostate cancer cells; assay type: cell-based; conditions: Day 7, MTT
Method: as §2

NIH-OVCAR-3 = experiment: Growth inhibition assay (MTT), NIH-OVCAR-3 ovarian cancer cells; assay type: cell-based; conditions: Homo sapiens, OVCAR-3, 168 h; Day 7, MTT
Method: (§3) Assays were conducted on compound 74 (SR13668) to determine its growth inhibitory effect on two ovarian cancer cell lines, NIH-OVCAR-3 and SKOV-3. OVCAR-3 cells are routinely maintained in RPMI-1640 medium supplemented with 2 mM glutamine (GLN) and 10% fetal calf serum (FCS), and SKOV-3 cells in McCoy's 5A medium supplemented with 2 mM GLN and 10% FCS. Both cell lines are fed with fresh medium every other day and passaged every 6-7 days. To conduct the growth inhibition assay, cells from either cell line are seeded in 96-well plates at 2000 cells/well in 200 μL of medium. After cells are allowed to attach for 24 h, test compounds dissolved in dimethyl sulfoxide (DMSO) and further diluted with medium are added to each well in 10-μL aliquots. The final DMSO concentration is kept at 0.05%. Control wells receive vehicle only. Media and test solutions are replaced every other day. On Day 7, viable cells are measured with the MTT (tetrazolium blue) assay, using an MTT kit.

SKOV-3 = experiment: Growth inhibition assay (MTT), SKOV-3 ovarian cancer cells; assay type: cell-based; conditions: Homo sapiens, SK-OV-3, 168 h; Day 7, MTT
Method: as §3

[3] = system: MDA-MB-231 human carcinoma cells; experiment: Boyden Chamber Invasion Assay; assay type: cell-based; conditions: 5 μM, 16 h end-point
Method: MDA-MB-231 human carcinoma cells was used for this Boyden Chamber Invasion Assay (Meng et al. (2000) J. Mol. Med. 78, 155-165; Meng et al. (2000) Breast Cancer Res. Treat. 63, 147-152). Briefly, to each well of a 24-well Biocoat invasion chamber plate, 0.6 mL of appropriate medium containing 10% FCSH 6 μg/ml Fibronectin is added, followed by gentle placement of a CCI in each well. To each CCI is added freshly harvested cells suspended in 200 μL of medium containing either the test compound or vehicle alone. The preparations are incubated at 37° C. for 16 h, and then the CCI is removed from each well, fixed for 10 min with 1 ml of 3.7% paraformaldehyde in PBS, and stained for 10 min in 1 mL of Wright-Giemsa stain solution. The stained CCI is placed on a glass microscope slide and the upper surface cells are carefully removed by scraping with a cotton swab. The cells on the lower surface are counted in a bright field microscope. The inhibitory effect of a test compound is calculated by dividing the number of cells in a treated preparation by that of the vehicle control and expressed as a percentage.

[4] = system: MDA-MB-231 human carcinoma cells; experiment: Parallel cell growth inhibition assay to the invasion study; assay type: cell-based; conditions: 16 h end-point
[5] = system: MCF-7 breast cancer xenografts; experiment: ER+ MCF-7 breast cancer xenografts in nude mice; assay type: in vivo, female Balb/c nude mice; conditions: oral gavage daily, MCF-7 xenograft
Method: To study the in vivo activity of novel compound 74 against estrogen-dependent breast cancer, the compound was administered to nude mice that had been implanted with […] MCF-7 breast cancer cells. To start the experiment, female Balb/c nude mice were implanted subcutaneously (s.c.) with estrogen pellets two days prior to inoculation of cancer cells, for stimulation of cell growth. MCF-7 cells were then implanted s.c. in the flanks, using an inoculum of 5×10^6 cells in a medium-Matrigel mixture (1:1, v/v). When the mean tumor volume reached approximately 100 mm^3, the test compound in 0.5% hydroxypropylcellulose in sterile saline solution (or vehicle alone for controls) was administered orally by gavage daily. There were 7 mice in the experimental and control groups. Mice were examined daily for tumor growth, and tumors and body weight were measured twice weekly. The tumor volume is 4/3πr1^2r2, where r1 and r2 are the short radius and long radius, respectively. On Day 27, all the mice were sacrificed, and the major organs examined by a pathologist.

[6] = system: MDA-MB-231 human breast cancer xenografts; experiment: (ER−) MDA-MB-231 breast cancer xenografts in nude mice; assay type: in vivo, female Balb/c nude mice; conditions: 10, 30, and 100 mg/kg daily oral gavage, MDA-MB-231 xenograft
Method: As a further test of in vivo efficacy against estrogen-independent breast cancer, the novel compound 74 was administered to nude mice that had been implanted with (ER^−) MDA-MB-231 human breast cancer xenografts. To start, female Balb/c nude mice were implanted subcutaneously (s.c.) with MDA-MB-231 cells, using an inoculum of 5×10^6 cells in a medium-Matrigel mixture (1:1, v/v). When the mean tumor volume reached approximately 70 mm^3, compound was administered daily at three dose levels (10, 30, and 100 mg/kg) via oral gavage. The methods used in the study were essentially the similar to those described in Example 29 herein.

[7] = system: SKOV-3 human ovarian cancer xenografts; experiment: SKOV-3 human ovarian cancer xenografts in nude mice; assay type: in vivo, female Balb/c nude mice; conditions: 30 mg/kg orally daily from Day 0, SKOV-3 xenograft
Method: To start, female Balb/c nude mice were implanted subcutaneously (s.c.) with SKOV-3 cells in the flanks, using an inoculum of 5×10^6 cells in a medium-Matrigel mixture (1:1, v/v), and compound 74 (30 mg/kg) was orally administered daily via gavage from Day 0. Tumor volume and body weight were measured twice weekly.

IC50 (MCF-7 (ER+))	IC50 (MDA-MB-231 (ER−))	IC50 [1]	IC50 (MCF-7 (ER+); Homo sapiens, MCF7, 168 h)	IC50 (MDA-MB-231 (ER−); Homo sapiens, MDA-MB-231)	IC50 ([1]; Tamoxifen-resistant MCF7)	SMILES	MCF-7 (ER+) % Growth Inhibition at 1 μM (MCF-7 (ER+))	MDA-MB-231 (ER−) % Growth Inhibition at 10 μM (MDA-MB-231 (ER−))	Ishikawa Assay Estrogenic Activity at 10 μM [2]	Ishikawa Assay Anti-Estrogenic Activity at 10 μM [2]	inhibition at 1 µM (MCF-7 (ER+); Homo sapiens)	inhibition at 10 µM (MDA-MB-231 (ER−); Homo sapiens, MDA-MB-231)	other results
31 nM	6900 nM	460 nM				CCOC(=O)c1ccc2[nH]c(Cc3[nH]c4ccc(C(=O)OCC)cc4c3C)c(C)c2c1 [Compound 46, 5,5′-Dicarbethoxy-3,3′-dimethyl-2,2′-diindolylmethane]	100%	81%	0	94%			IC50 (LNCaP): 4700 nM; IC50 (DU-145): 480 nM; IC50 (PC-3): 200 nM
			200 nM	7800 nM	930 nM	CCOC(=O)c1ccc2[nH]c3c(OC)c4[nH]c5ccc(C(=O)OCC)cc5c4cc3c2c1 [Compound 74, 2,10-Dicarbethoxy-6-methoxy-5,7-dihydro-indolo[2,3-b]carbazole]			0	80%	100%	69%	IC50 (NIH-OVCAR-3): 5100 nM; IC50 (SKOV-3): 4000 nM; reduction in the invasive capacity of MDA-MB-231 cells [3]: 90%; inhibition at 5 µM [4]: 22%; body weights of the treated mice [5]: unaffected; tumor volume versus control mice ([5]; FIG. 1): less than half of those in the control mice; body weights of the treated mice [6]: unaffected; tumor volume versus control mice ([6]; FIG. 2): less than half of those in the control mice; body weights of the treated mice [7]: unaffected; tumor volume versus control mice ([7]; FIG. 3): significantly less than those in the control mice

The remaining lines, values behind:

SMILES	IC50 (MCF-7 (ER+))	IC50 (MDA-MB-231 (ER−))	IC50 [1]	IC50 (MCF-7 (ER+); Homo sapiens, MCF7, 168 h)	IC50 (MDA-MB-231 (ER−); Homo sapiens, MDA-MB-231)	IC50 ([1]; Tamoxifen-resistant MCF7)	MCF-7 (ER+) % Growth Inhibition at 1 μM (MCF-7 (ER+))	MDA-MB-231 (ER−) % Growth Inhibition at 10 μM (MDA-MB-231 (ER−))	Ishikawa Assay Estrogenic Activity at 10 μM [2]	Ishikawa Assay Anti-Estrogenic Activity at 10 μM [2]	inhibition at 1 µM (MCF-7 (ER+); Homo sapiens)	inhibition at 10 µM (MDA-MB-231 (ER−); Homo sapiens, MDA-MB-231)	other results
CCOC(=O)Oc1c2[nH]c3ccccc3c2cc2c1[nH]c1ccccc12 [Compound 58, 6-Ethoxycarbonyloxy-5,7-dihydro-indolo[2,3-b]carbazole]				18 nM	2100 nM	56 nM			0	100%	100%	97%	
c1ccc2c(Cc3c[nH]c4ccccc34)c[nH]c2c1 [DIM, 3,3′-diindolylmethane, reference compound]	5500 nM	31000 nM	> 10000 nM				3%	20%					
c1ccc2c(Cc3[nH]c4ccccc4c3Cc3c[nH]c4ccccc34)c[nH]c2c1 [LT, 2-(indol-3-ylmethyl) 3,3′-diindolyl-methane, reference compound]	1800 nM	13000 nM	600 nM				19%	34%	0	100%			
CCOC(=O)Oc1c2[nH]c3ccc(C(=O)OCC)cc3c2cc2c1[nH]c1ccc(C(=O)OCC)cc12 [Compound 63, 2,10-Dicarbethoxy-6-ethoxycarbonyloxy-5,7-dihydro-indolo[2,3-b]carbazole]				1400 nM	2000 nM	3000 nM			0	100%	66%	94%	
